Consider 6 compounds from patent US20150119363A1, “METHODS OF TREATING BACTERIAL INFECTIONS” (Rampex Pharmaceuticals, Inc., priority 2012, published 2015).

Where a name gives a salt, the structure may show the parent alone. Read-outs that look alike come from different tables or passages of the source. Where only a bound is given, the exact number is not on record here.

Test [1] concerns Klebsiella pneumoniae KP1004 (KPC-2). In words: Checkerboard assay, biapenem potentiation (MPC8). It counts as cell-based. To be noted: concentration to reduce biapenem MIC 8-fold. As to the method:
(§1) The potency and spectrum of β-lactamase inhibitors was determined by assessing their antibiotic potentiation activity.
(§2) The potentiation effect is observed by the reduction of the minimum inhibitory concentration of β-lactam antibiotics in the presence of β-lactamase inhibitors (BLIs). […] Methods for Dilution of Antimicrobial Susceptibility Tests for Bacteria That Grow Aerobically—Eighth Edition; Approved Standard. CLSI Document M07-A8, 2009). In this assay, multiple dilutions of two drugs, namely BLI and β-lactam (biapenem), are being tested, alone and in combination, at concentrations equal to, above and below their respective minimal inhibitory concentrations (MICs). BLIs are solubilized in 10% DMSO at 10 mg/mL. Stock solutions are further diluted, according to the needs of a particular assay, in Mueller Hinton Broth (MHB). Stock solution can be stored at −80° C.
(§3) The checkerboard (CB) assay is performed in microtiter plates. Biapenem is diluted in the x axis, each column containing a single concentration of antibiotic. BLIs are diluted in the y axis, each row containing an equal concentration of BLI. The result of these manipulations is that each well of the microtiter plate contains a unique combination of concentrations of the two agents. The assay is performed in MHB with a final bacterial inoculum of 5×10^5 CFU/mL (from an early-log phase culture). Microtiter plates are incubated during 20 h at 35° C. and are read using a microtiter plate reader (Molecular Devices) at 650 nm as well as visual observation using a microtiter plate reading mirror.
(§4) Biapenem is a carbapenem β-lactam; only selected β-lactamases confer resistance to this class of antibiotics. Among them are serine carbapemenases that belong to class A and class D. Biapenem potentiation is studied in strains expressing various carbapenemases from these classes using CB assays. […] Cyclic boronic acid derivatives were capable of reducing biapenem MICs up to 1000-fold (Table 3).

Test [2] has as its system ECL1004 NMC-A. In words: Dose titration biapenem potentiation assay (MPC1). The class given is cell-based, Enterobacter cloacae. To be noted: biapenem 1 μg/mL. As to the method:
(§5) The potency and spectrum of β-lactamase inhibitors is also determined by assessing their biapenem potentiation activity in a dose titration potentiation assay using strains expressing serine carbapemenases (such as KPC). The potentiation effect is observed as the ability of BLI compounds to inhibit growth in the presence of sub-inhibitory concentration of biapenem. […] Biapenem is present in the test medium at 1 μg/mL. Compounds tested at the highest concentration of 40 μg/mL. […] Table 5 summarizes BLI potency of biapenem potentiation (MPC1). Biapenem MIC for each strain is also shown.

In test [3] the test system is KP1008 KPC-2. In words: Dose titration biapenem potentiation assay (MPC1). The class given is cell-based, Klebsiella pneumoniae. To be noted: biapenem 1 μg/mL. The protocol:
as §5

Test [4] deals with KP1004 KPC-2. In words: Dose titration biapenem potentiation assay (MPC1). It counts as cell-based, Klebsiella pneumoniae. As to conditions: biapenem 1 μg/mL. The protocol: as §5
For test [5], the system named is EC1007 KPC-3. In words: Dose titration biapenem potentiation assay (MPC1). To be noted: biapenem 1 μg/mL. It counts as cell-based, Escherichia coli. As to the method: as §5
Test [6] addresses T1, KPC-2 (Klebsiella pneumoniae KP1008 lysate) (Klebsiella pneumoniae, UniProt Q9F663).
T1 construct: Lysates were prepared from bacteria expressing various β-lactamases as a source of enzymes; endogenous in cells; host or cells: Klebsiella pneumoniae strains KP1004 and KP1008 (freeze-thaw lysate supernatants)
In words: Inhibition of biapenem hydrolysis by bacterial lysate. It counts as biochemical. As to the method: (§6) The activity of β-lactamase inhibitors to inhibit hydrolysis of biapenem was studied. Lysates were prepared from bacteria expressing various β-lactamases as a source of enzymes. Bacterial lysates were prepared as follows. A single colony from the fresh overnight plate was transferred to 5 mL of LB broth and grown to OD600=0.6-0.8. Next, this culture was transferred to 500 mL of LB and grown to OD600=0.7-0.9. Cells were pelleted by centrifugation at 5000 RPM (JA-14 rotor) for 15 minutes at room temperature. The pellet was resuspended in 10 mL of PBS. Five freeze-thaw cycles by putting cells at −20° C. and thawing them at the room temperature were next applied. After the last thaw step cells were spun down at 18K for 30 minutes and the supernatant was collected. This lysate was stored at −20° C.
(§7) Next, the activity of bacterial lysates was optimized for biapenem cleavage as follows. 50 μl of buffer A (50 mM Sodium Phosphate pH=7; 0.5% glucose, 1 mM MgCl2) was added to each well of 96-well UV-transparent plate. 50 μl of lysate was titrated vertically in 96-well plate column to generate 2-fold lysate dilutions. 100 μl of buffer A was added to each well, placed in plate reader at 37° C. and incubated for 15 minutes. 50 μl of 50 μg/mL solutions of biapenem in buffer A (pre-incubated at 37° C. for 15 minutes) were added to each well. Hydrolysis of biapenem was measured at 296 nm. This experiment was used to determine the optimal lysate dilution which produced a linear curve of relative UV signal that decreased to approximately OD=0.3-0.5 over 1 hour.
(§8) Finally, the potency of cyclic boronic acid derivative to inhibit the cleavage of biapenem cleavage by bacterial lysates was determined. 100 μl of buffer A (50 mM Sodium Phosphate pH=7; 0.5% glucose, 1 mM MgCl2) was added to each well of 96-well UV-transparent plate. 50 μl of 6× cyclic boronic acid derivative solution in buffer A was titrated vertically in 96-well plate column to generate 3-fold dilutions. 50 μl of diluted lysate in buffer A (optimal dilution is determined in experiment above) was added, and the plate was incubated in the plate reader at 37° C. for 15 minutes. 50 μl of 50 μg/mL solution of biapenem in buffer A (pre-incubated at 37° C. for 15 minutes) were next added to each well and hydrolysis of biapenem was recorded at 296 nm. EC50 of inhibition was determined by plotting the rate of biapenem cleavage vs. cyclic boronic acid derivative concentration.

Test [7] addresses T2, KPC-2 (Klebsiella pneumoniae KP1004 lysate) (Klebsiella pneumoniae, UniProt Q9F663).
T2 construct: Lysates were prepared from bacteria expressing various β-lactamases as a source of enzymes; endogenous in cells; host or cells: Klebsiella pneumoniae strains KP1004 and KP1008 (freeze-thaw lysate supernatants)
Described as above. It counts as biochemical. The protocol: as §6, §7, §8

In test [8] the target is T3, KPC-3 (Escherichia coli EC1007 lysate) (Klebsiella pneumoniae, UniProt Q9F663, H272Y).
T3 construct: Lysates were prepared from bacteria expressing various β-lactamases as a source of enzymes; endogenous in cells; host or cells: Escherichia coli strain EC1007 (freeze-thaw lysate supernatant)
T3 sequence (Q9F663 25-293 H272Y): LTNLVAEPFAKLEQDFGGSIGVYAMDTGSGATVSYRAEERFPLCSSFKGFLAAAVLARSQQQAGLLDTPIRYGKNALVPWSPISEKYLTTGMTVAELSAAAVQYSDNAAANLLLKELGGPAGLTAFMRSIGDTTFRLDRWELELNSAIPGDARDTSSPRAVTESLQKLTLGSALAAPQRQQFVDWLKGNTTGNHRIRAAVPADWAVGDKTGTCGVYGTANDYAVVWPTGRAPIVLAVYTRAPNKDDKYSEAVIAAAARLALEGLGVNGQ
Described as above. It counts as biochemical. As to the method:
as §6, §7, §8

Test [9] has as its target T4, SME-2 (Serratia marcescens SM1000 lysate) (Serratia marcescens, UniProt P52682).
T4 construct: Lysates were prepared from bacteria expressing various β-lactamases as a source of enzymes
The test is described as above. It counts as biochemical. As to the method:
as §6, §7, §8

In test [10] the test system is Acinetobacter baumannii AB1057 (OXA-58). In words: Checkerboard assay, biapenem potentiation (MPC8). It counts as cell-based. As to conditions: concentration to reduce biapenem MIC 8-fold. The protocol:
as §1, §2, §3, §4

The subject of test [11] is Acinetobacter baumannii AB1054 (OXA-23). In words: Checkerboard assay, biapenem potentiation (MPC8). It counts as cell-based. To be noted: concentration to reduce biapenem MIC 8-fold. The protocol: as §1, §2, §3, §4
Where [12] appears, read: EC1007 KPC-3 lysate, read-out: IC50 (μg/mL) of inhibition of biapenem hydrolysis.
[13] abbreviates: SM1000 SME-2 lysate; read-out: IC50 (μg/mL) of inhibition of biapenem hydrolysis.
Where [14] appears, read: read-out: IC50 (μg/mL) of inhibition of biapenem hydrolysis; SM1000 SME-2 lysate.

T4 sequence (P52682 28-294 limits assumed): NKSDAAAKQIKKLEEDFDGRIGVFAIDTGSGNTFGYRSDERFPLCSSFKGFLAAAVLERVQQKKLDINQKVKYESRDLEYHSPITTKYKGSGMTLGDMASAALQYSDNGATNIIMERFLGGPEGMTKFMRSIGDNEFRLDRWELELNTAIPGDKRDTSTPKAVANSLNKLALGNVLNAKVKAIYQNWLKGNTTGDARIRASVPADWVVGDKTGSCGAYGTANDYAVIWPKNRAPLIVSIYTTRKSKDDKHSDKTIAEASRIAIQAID
T2 sequence (Q9F663 25-293 limits assumed): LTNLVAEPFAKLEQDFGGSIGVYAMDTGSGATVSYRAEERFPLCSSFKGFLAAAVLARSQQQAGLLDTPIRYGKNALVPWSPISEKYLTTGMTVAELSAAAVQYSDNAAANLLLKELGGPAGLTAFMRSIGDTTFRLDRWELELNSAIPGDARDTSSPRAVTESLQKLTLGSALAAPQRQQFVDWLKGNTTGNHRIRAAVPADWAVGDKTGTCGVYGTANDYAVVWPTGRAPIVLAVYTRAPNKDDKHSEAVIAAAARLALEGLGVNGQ
T1 sequence (Q9F663 25-293 limits assumed): as above

As to `O=C(O)CC1CC[C@H](NC(=O)Cc2ccccc2)B(O)O1` (stereo partly drawn) [Compound 2, 2-((3R)-2-hydroxy-3-(2-phenylacetamido)-1,2-oxaborinan-6-yl)acetic acid], in test [1], the MPC8 entry is on record as “X (X = MPC8 of less than 0.16 μg/mL.)”.
Turning to `CC(=O)N[C@H]1CCC(CC(=O)O)OB1O` (stereo partly drawn) [Compound 3, 2-((3R)-3-acetamido-2-hydroxy-1,2-oxaborinan-6-yl)acetic acid], the “BPM MPC1 ECL1004 NMC-A” value in [2] was “Y (Y = MPC1 of 1 μg/mL to 5 μg/mL.)”. In [3], the “BPM MPC1 KP1008 KPC-2” value was “X (X = MPC1 of less than 1 μg/mL.)”. Further, the “BPM MPC1 KP1004 KPC-2” value in [4] was “X (X = MPC1 of less than 1 μg/mL.)”. Further, in test [5], the “BPM MPC1 EC1007 KPC-3” value is listed as “X (X = MPC1 of less than 1 μg/mL.)”. Besides, the IC50 was over 4.65 µM in [6], over 4.65 µM in [7], 0.465 to 4.65 µM in test [8] (setting [12]) and over 4.65 µM in test [9] (setting [13]). Moreover, the MPC8 entry in test [1] was “X (X = MPC8 of less than 0.16 μg/mL.)”; in test [10], “Z (Z = MPC8 of greater than 1 μg/mL.)”; in [11], “Z (Z = MPC8 of greater than 1 μg/mL.)”.
With `O=C(O)CC1CC[C@H](NC(=O)C2CC2)B(O)O1` (stereo partly drawn) [Compound 4, 2-((3R)-3-(cyclopropanecarboxamido)-2-hydroxy-1,2-oxaborinan-6-yl)acetic acid], the “BPM MPC1 ECL1004 NMC-A” value in test [2] is given as “X (X = MPC1 of less than 1 μg/mL.)”. Further, in test [3], the “BPM MPC1 KP1008 KPC-2” value was “X (X = MPC1 of less than 1 μg/mL.)”. The “BPM MPC1 KP1004 KPC-2” value in test [4] was “X (X = MPC1 of less than 1 μg/mL.)”. In [5], the “BPM MPC1 EC1007 KPC-3” value was “X (X = MPC1 of less than 1 μg/mL.)”. In addition, the IC50 is over 4.15 µM in test [6], 0.415 to 4.15 µM in [7], 0.415 to 4.15 µM in [8] (setting [12]) and 0.415 to 4.15 µM in [9] (setting [13]). Further, the MPC8 result in test [1] is “X (X = MPC8 of less than 0.16 μg/mL.)”; in test [10], “Z (Z = MPC8 of greater than 1 μg/mL.)”; in test [11] it was “Z (Z = MPC8 of greater than 1 μg/mL.)”.
For the compound `O=C(O)C[C@@H]1CC[C@H](NC(=O)Cc2ccccc2)B(O)O1` [Compound 6, 2-((3R,6S)-2-hydroxy-3-(2-phenylacetamido)-1,2-oxaborinan-6-yl)acetic acid], in test [2], the “BPM MPC1 ECL1004 NMC-A” value was “X (X = MPC1 of less than 1 μg/mL.)”. Also, in test [3], the “BPM MPC1 KP1008 KPC-2” value is recorded as “X (X = MPC1 of less than 1 μg/mL.)”. In test [4], the “BPM MPC1 KP1004 KPC-2” value is “X (X = MPC1 of less than 1 μg/mL.)”. The “BPM MPC1 EC1007 KPC-3” value in test [5] is listed as “X (X = MPC1 of less than 1 μg/mL.)”. Besides, the IC50 in test [6] is 0.344 to 3.44 µM; in [7], 0.344 to 3.44 µM; in [8] (setting [12]) it was under 0.344 µM; in test [9] (setting [13]), 0.344 to 3.44 µM. The MPC8 result in [1] is reported as “X (X = MPC8 of less than 0.16 μg/mL.)”; in test [10], “Z (Z = MPC8 of greater than 1 μg/mL.)”; in test [11], “X (X = MPC8 of less than 0.16 μg/mL.)”.
With `N[C@H]1CCC(CC(=O)O)OB1O` (stereo partly drawn) [Compound 7, 2-((3R)-3-amino-2-hydroxy-1,2-oxaborinan-6-yl)acetic acid hydrochloride], the IC50 in [8] and in test [9] (setting [14]) was over 5.78 µM throughout.
Regarding `C[C@]1(Cn2ccnn2)[C@H](C(=O)O)N2C(=O)C[C@H]2S1(=O)=O` [Tazobactam, reference compound], in [2] (numeric value), the “BPM MPC1 ECL1004 NMC-A” value was found to be 0.6 µg/mL. Also, the “BPM MPC1 KP1008 KPC-2” value in test [3] (numeric value) came to 0.3 µg/mL. Moreover, the “BPM MPC1 KP1004 KPC-2” value in [4] (numeric value) amounted to 40 µg/mL. Also, the “BPM MPC1 EC1007 KPC-3” value in test [5] (numeric value) was 5 µg/mL. In addition, the IC50 in test [6] is over 3.33 µM; in test [7], over 3.33 µM; in test [8], over 3.33 µM; in [9] (setting [14]), 0.333 to 3.33 µM.
